Data published in the supplement of paper PMC12370961.

Key:
Assay in all cases: differential drug sensitivity score (dDSS) relative to sarcoma reference cohort mean DSS (DSS units (0-100 scale difference)); higher = more selective sensitivity than reference sarcomas
Details in all cases: exposure time: 72 h; concentration range: 10-10000 nM
[1] = test system: ES-ZH016 (patient-derived Ewing sarcoma tumoroid)
Experimental: (§1)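 Drug response profiling of patient-derived Ewing sarcoma and CIC::DUX4 sarcoma tumoroid models (or cells tested directly after isolation from the tumor, 'direct'). The DSS is the normalised AUC (0-100); dDSS is the sample DSS minus the mean DSS of a 34-sarcoma reference cohort profiled in the same lab.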

[2] = test system: ES-ZH007 (patient-derived Ewing sarcoma tumoroid)
Experimental: as §1

[3] = test system: CDS-ZH002 direct (CIC-DUX4 sarcoma cells right after isolation)
Experimental: as §1

[4] = test system: ES-ZH008 (patient-derived Ewing sarcoma tumoroid)
Experimental: as §1

[5] = test system: CDS-ZH003 (patient-derived CIC-DUX4 sarcoma tumoroid)
Experimental: as §1

[6] = test system: CDS-ZH002 (patient-derived CIC-DUX4 sarcoma tumoroid)
Experimental: as §1

[7] = test system: ES-ZH002 (patient-derived Ewing sarcoma tumoroid)
Experimental: as §1

[8] = test system: CDS-ZH001 (patient-derived CIC-DUX4 sarcoma tumoroid)
Experimental: as §1

[9] = test system: ES-ZH016 direct (Ewing sarcoma cells right after isolation)
Experimental: as §1

[10] = test system: CDS-ZH001-2 (patient-derived CIC-DUX4 sarcoma tumoroid)
Experimental: as §1

[11] = test system: ES-ZH009 (patient-derived Ewing sarcoma tumoroid)
Experimental: as §1

[12] = test system: ES-ZH001 (patient-derived Ewing sarcoma tumoroid)
Experimental: as §1

[13] = test system: ES-ZH004 (patient-derived Ewing sarcoma tumoroid)
Experimental: as §1

| Compound | differential drug sensitivity score [1] | differential drug sensitivity score [2] | differential drug sensitivity score [3] | differential drug sensitivity score [4] | differential drug sensitivity score [5] | differential drug sensitivity score [6] | differential drug sensitivity score [7] | differential drug sensitivity score [8] | differential drug sensitivity score [9] | differential drug sensitivity score [10] | differential drug sensitivity score [11] | differential drug sensitivity score [12] | differential drug sensitivity score [13] |
| --- | --- | --- | --- | --- | --- | --- | --- | --- | --- | --- | --- | --- | --- |
| CN(c1ncccc1CNc1nc(Nc2ccc3c(c2)CC(=O)N3)ncc1C(F)(F)F)S(C)(=O)=O | 2.2 | -0.4 | 3.8 | -0.7 | -0.7 | -0.6 | 6 | 5.1 | -1.2 | 1.5 | 0.8 | 5 | -0.4 |
| S=P(N1CC1)(N1CC1)N1CC1 [Thiotepa] | 9.2 | 3.1 | -4.2 | 8.7 | 9.4 | -3.1 | 11.2 | 4.6 | 17 | 0.2 | -1.4 | 7 | 5.2 |
| CN1CC[C@H](c2c(O)cc(O)c3c(=O)cc(-c4ccccc4Cl)oc23)[C@H](O)C1 [Alvocidib] | 6.1 | 7.8 | 8.9 | 6.3 | 8 | 5.8 | 7.1 | 8.5 | 3.7 | 5.7 | 9 | 2.6 | 6.6 |
| CC1(C)CCC(c2ccc(Cl)cc2)=C(CN2CCN(c3ccc(C(=O)NS(=O)(=O)c4ccc(N[C@H](CCN5CCOCC5)CSc5ccccc5)c(S(=O)(=O)C(F)(F)F)c4)cc3)CC2)C1 [Navitoclax] | -6.4 | -7.4 | -5.8 | 10.4 | 0.6 | -7.6 | 17.3 | -2.9 | 13.7 | 2.5 | 4.9 | 6.7 | -3.4 |
| C[C@@H]1CCN(C(=O)CC#N)C[C@@H]1N(C)c1ncnc2[nH]ccc12 [Tofacitinib] | -1.3 | -1 | 0.3 | 4.8 | -3.7 | -1.3 | 6.4 | -1.3 | -1.3 | -1.3 | -0.3 | 5.4 | 0.8 |
| O=C(NOC[C@H](O)CO)c1ccc(F)c(F)c1Nc1ccc(I)cc1F [Mirdametinib] | -3 | -3 | -2.9 | -1.9 | -3 | -3 | -3 | -3 | -3 | -3 | -3 | -3 | -3 |
| CC(C)CCN1c2nc(Nc3cc(F)c(O)c(F)c3)ncc2N(C)C(=O)C1C (configuration not stated) [BI-D1870] | 2.7 | 0.6 | -1.7 | 5.6 | 4.1 | -2.3 | 3.1 | 1.3 | 7.3 | -0.8 | 8.6 | 2.9 | 3 |
| Cc1cn(-c2cc(NC(=O)c3ccc(C)c(Nc4nccc(-c5cccnc5)n4)c3)cc(C(F)(F)F)c2)cn1 [Nilotinib] | -0.7 | -0.3 | -0.7 | -0.6 | -0.7 | -0.7 | 4.1 | 0.6 | -0.7 | -0.7 | -0.4 | 0.5 | 1.6 |
| CC(C)C[C@H](NC(=O)CNC(=O)c1cc(Cl)ccc1Cl)B(O)O [Ixazomib] | -2.9 | 4.9 | 9.9 | 0.7 | 3.2 | 1.8 | 4.9 | 9.5 | -2.2 | 3.6 | 7.6 | 5.2 | 3.5 |
| CC[C@H](NC(=O)[C@H](C)NC)C(=O)N1C[C@@H](O)C[C@H]1Cc1c(-c2[nH]c3cc(F)ccc3c2C[C@@H]2C[C@H](O)CN2C(=O)[C@H](CC)NC(=O)[C@H](C)NC)[nH]c2cc(F)ccc12 [Birinapant] | -1.3 | -0.4 | 4.6 | -0.3 | 13 | -1.8 | -0.4 | 21.9 | 4.6 | 16.6 | 5.7 | -0.8 | -2.3 |
| O=c1cc(N2CCOCC2)oc2c(-c3cccc4c3sc3ccccc34)cccc12 [NU7441] | -3.9 | -4.3 | 1.5 | -0.8 | -4.3 | -4 | 8.5 | -4.3 | 1.1 | 1.9 | 2.9 | 0 | -1.9 |
| Cn1nnc2c(C(N)=O)ncn2c1=O [Temozolomide] | 13.8 | -1.3 | 1.1 | -1.3 | 7.1 | 1.4 | 2.1 | 3.6 | 14.8 | 3.5 | 7 | 3.2 | -1.7 |
| CN1CCN(CCOc2cc(OC3CCOCC3)c3c(Nc4c(Cl)ccc5c4OCO5)ncnc3c2)CC1 [Saracatinib] | -1.7 | -2.3 | 4.3 | 5.7 | -1.5 | -0.5 | 5.6 | 0.3 | 2.3 | 0.9 | -2.8 | -0.7 | 2.9 |
| C#Cc1cccc(Nc2ncnc3cc(OCCOC)c(OCCOC)cc23)c1 [Erlotinib] | -1.1 | -1.1 | -1.1 | -1.1 | -1.1 | -1.1 | -1.1 | -1.1 | -1.1 | -1.1 | -1.1 | -1.1 | -1.1 |
| CC[C@@H]1C(=O)N(C)c2cnc(Nc3ccc(C(=O)NC4CCN(C)CC4)cc3OC)nc2N1C1CCCC1 [BI-2536] | 17.6 | 6.1 | -8 | 2.3 | -10 | 2.2 | 19 | -0.7 | 13.4 | 1.7 | 19.6 | 21.6 | 2.9 |
| C[C@]12C=CC(=O)C=C1CC[C@@H]1[C@@H]2C(=O)C[C@@]2(C)[C@H]1CC[C@]2(O)C(=O)CO [Prednisone] | -0.5 | -0.5 | -0.5 | -0.5 | -0.5 | -0.5 | -0.5 | -0.5 | -0.5 | -0.5 | -0.5 | -0.5 | -0.5 |
| Nc1ncn([C@H]2C[C@H](O)[C@@H](CO)O2)c(=O)n1 [Decitabine] | 4.4 | 5.1 | 2.2 | 5.7 | -7 | -1.8 | 21.4 | 0.1 | 13.3 | 1.7 | 1.3 | 5.8 | 6.4 |
| Nc1cccc2c1C(=O)N(C1CCC(=O)NC1=O)C2=O (configuration not stated) [Pomalidomide] | -1.4 | -1.2 | -1.4 | 3 | -1.3 | -1.4 | 6.4 | -0.6 | -1.2 | -1.4 | -1.3 | -1.1 | 0.4 |
| O=c1ncn2nc(Sc3ccc(F)cc3F)ccc2c1-c1c(Cl)cccc1Cl [Neflamapimod] | 2.9 | 0.5 | 1 | 7.4 | -5.6 | -1.2 | 5.8 | -2.7 | 11.9 | 5 | 5.9 | 3.5 | 0.5 |
| Cc1c(-c2c(-c3ccc(F)o3)sc3ncnc(O[C@H](Cc4ccccc4OCc4ccnn4CC(F)(F)F)C(=O)O)c23)ccc(OCCN2CCN(C)CC2)c1Cl | 7 | 28.5 | 19.6 | 8.1 | 31.7 | 10.4 | 9.2 | 32.7 | 14.5 | 29.6 | 11.6 | -11.5 | 12.2 |
| CNCc1ccc(-c2[nH]c3cc(F)cc4c3c2CCNC4=O)cc1 [Rucaparib] | 4.9 | 4.3 | -0.8 | 11.5 | -4.1 | -4 | 17.9 | -4 | 21 | 7.1 | 1.4 | 6.7 | 5.6 |
| NC(=O)/C(=C/n1cnc(-c2cc(C(F)(F)F)cc(C(F)(F)F)c2)n1)c1cncnc1 [Eltanexor] | -5.7 | 0.4 | -5.9 | 16.8 | -13.9 | -5.7 | 5 | 0.5 | 22 | 8 | -14.4 | -3.8 | 14 |
| Cc1c2oc3c(C)ccc(C(=O)N[C@@H]4C(=O)N[C@H](C(C)C)C(=O)N5CCC[C@H]5C(=O)N(C)CC(=O)N(C)[C@@H](C(C)C)C(=O)O[C@@H]4C)c3nc-2c(C(=O)N[C@@H]2C(=O)N[C@H](C(C)C)C(=O)N3CCC[C@H]3C(=O)N(C)CC(=O)N(C)[C@@H](C(C)C)C(=O)O[C@@H]2C)c(N)c1=O [Dactinomycin] | 11.8 | 8.7 | 11.9 | 12.5 | 12.7 | 11.4 | 11.1 | 12.1 | 9.9 | 11.9 | 12.8 | 9.7 | 7.5 |
| CC(C)(C)c1cc(NC(=O)Nc2ccc(-c3cn4c(n3)sc3cc(OCCN5CCOCC5)ccc34)cc2)no1 [Quizartinib] | -0.6 | 2.4 | 8.3 | 0.6 | -3.2 | -2.9 | 1.6 | -2.8 | 9.4 | 13.2 | 3.6 | -1.7 | -0.8 |
| C=C(F)C(=O)N1CCN(c2nc(OC[C@@H]3CCCN3C)nc3c2CCN(c2cccc4cccc(Cl)c24)C3)C[C@@H]1CC#N [MRTX849] | -1.7 | 2 | 0.7 | 1.6 | 3.5 | 1.5 | 1.1 | 4.8 | -1.7 | 0.7 | 1.8 | -0.9 | 0.1 |
| CNC(=O)c1cc(Oc2ccc(NC(=O)Nc3ccc(Cl)c(C(F)(F)F)c3)c(F)c2)ccn1 [Regorafenib Monohydrate] | -1.1 | 0.4 | 1.5 | 8.9 | -3.4 | -3 | 13.6 | 1.3 | 1.8 | -2.3 | 5.8 | 11.6 | 5.5 |
| O=C(c1ccc(F)c(F)c1Nc1ccc(I)cc1F)N1CC(O)([C@@H]2CCCCN2)C1 [Cobimetinib] | -3.8 | -3 | -3.5 | -6.2 | -6.7 | -6.7 | 2.5 | -5.4 | -3.5 | -5.7 | -4.5 | 1.4 | 0 |
| CCCCN(Cc1ccc(C(=O)NO)cc1)C(=O)Nc1ccccc1 [Nexturastat A] | -1.3 | 2.1 | 2.4 | 5 | 2.1 | -0.4 | 0.9 | 0.8 | 4.4 | 5.3 | 0.5 | 2.9 | -0.7 |
| Cc1ccc(C(=O)Nc2cccc(C(F)(F)F)c2)cc1Nc1nc(-c2cccnc2)nc2c1cnn2C [BHG712] | -1.6 | -1.6 | -1.6 | 7.1 | -1.6 | -1.6 | 3.8 | -1.6 | -1.6 | -1.6 | -1.6 | -1.1 | 0.6 |
